Reference: patent US6156700A, “3-(1,2-Benzisothiazol- and isoxazol-5-yl)-2,4(1H,3H)-pyrimidinedione or thione and 3-(1,2-benzisothiazol- and isoxazol-5-yl)-4(3H)-pyrimidinone or thione herbicidal agents” (American Cyanmid Company, priority 1998, dated 2000)

Legend:
Experiment in all cases: Preemergence herbicidal evaluation
[1] = tested on: IPOHE; format: in vivo
Protocol: (§1) The preemergence and postemergence herbicidal properties of certain compounds of the present invention are compared with certain compounds disclosed in U.S. Pat. Nos. 5,484,763 and 5,523,278. The evaluations are performed as described in Examples 185 and 186. Data in Tables V and VI are reported by the compound number given in Example 185 for the compounds of this invention or by comparative compound letter for the compounds disclosed in U.S. Pat. Nos. 5,484,763 and 5,523,278.

[2] = tested on: ORYSAT; format: in vivo, Oryza sativa; parameters: scale not given here
Protocol: as §1

[3] = tested on: AMBEL; format: in vivo; parameters: scale not given here
Protocol: as §1

[4] = tested on: ABUTH; format: in vivo; parameters: scale not given here
Protocol: as §1

[5] = tested on: TRZAWR; format: in vivo; parameters: scale not given here
Protocol: as §1

[6] = tested on: GALAP; format: in vivo; parameters: scale not given here
Protocol: as §1

[7] = tested on: SETVI; format: in vivo; parameters: scale not given here
Protocol: as §1

[8] = tested on: ECHCG; format: in vivo; parameters: scale not given here
Protocol: as §1

[9] = tested on: CHEAL; format: in vivo; parameters: scale not given here
Protocol: as §1

[10] = tested on: GLXMAW; format: in vivo; parameters: scale not given here
Protocol: as §1

[11] = tested on: CASOB; format: in vivo; parameters: scale not given here
Protocol: as §1

[12] = tested on: ZEAMX; format: in vivo; parameters: scale not given here
Protocol: as §1

CN(C)C(=O)c1nsc2ccc(-n3c(=O)cc(C(F)(F)F)n(C)c3=O)cc12 [Compound 329, 1,2-Benzisothiazole-3-carboxamide,5-[3,6-dihydro-3-methyl-2,6-dioxo-4-(trifluoromethyl)-1(2H)-pyrimidinyl]-N,N-dimethyl-]
herbicidal effect rating ([1]; 0.0156-0.0160 kg/ha): 2.5 | herbicidal effect rating ([1]; 0.0313-0.0320 kg/ha): 4.0 | herbicidal effect rating ([1]; 0.0620-0.0630 kg/ha): 8.0 | herbicidal effect rating ([1]; 0.1250 kg/ha): 9.0 | herbicidal effect rating ([1]; 0.2500 kg/ha): 9.0 | herbicidal effect rating ([2]; 0.0156-0.0160 kg/ha): 1.5 | herbicidal effect rating ([2]; 0.0313-0.0320 kg/ha): 2.5 | herbicidal effect rating ([2]; 0.0620-0.0630 kg/ha): 5.0 | herbicidal effect rating ([2]; 0.1250 kg/ha): 6.5 | herbicidal effect rating ([2]; 0.2500 kg/ha): 8.0 | herbicidal effect rating ([3]; 0.0156-0.0160 kg/ha): 3.0 | herbicidal effect rating ([3]; 0.0313-0.0320 kg/ha): 7.0 | herbicidal effect rating ([3]; 0.0620-0.0630 kg/ha): 8.0 | herbicidal effect rating ([3]; 0.1250 kg/ha): 9.0 | herbicidal effect rating ([3]; 0.2500 kg/ha): 9.0 | herbicidal effect rating ([4]; 0.0156-0.0160 kg/ha): 9.0 | herbicidal effect rating ([4]; 0.0313-0.0320 kg/ha): 9.0 | herbicidal effect rating ([4]; 0.0620-0.0630 kg/ha): 9.0 | herbicidal effect rating ([4]; 0.1250 kg/ha): 9.0 | herbicidal effect rating ([4]; 0.2500 kg/ha): 9.0 | herbicidal effect rating ([5]; 0.0156-0.0160 kg/ha): 1.0 | herbicidal effect rating ([5]; 0.0313-0.0320 kg/ha): 2.0 | herbicidal effect rating ([5]; 0.0620-0.0630 kg/ha): 4.0 | herbicidal effect rating ([5]; 0.1250 kg/ha): 6.0 | herbicidal effect rating ([5]; 0.2500 kg/ha): 7.0 | herbicidal effect rating ([6]; 0.0156-0.0160 kg/ha): 1.0 | herbicidal effect rating ([6]; 0.0313-0.0320 kg/ha): 1.0 | herbicidal effect rating ([6]; 0.0620-0.0630 kg/ha): 6.0 | herbicidal effect rating ([6]; 0.1250 kg/ha): 9.0 | herbicidal effect rating ([6]; 0.2500 kg/ha): 9.0 | herbicidal effect rating ([7]; 0.0156-0.0160 kg/ha): 1.5 | herbicidal effect rating ([7]; 0.0313-0.0320 kg/ha): 2.5 | herbicidal effect rating ([7]; 0.0620-0.0630 kg/ha): 9.0 | herbicidal effect rating ([7]; 0.1250 kg/ha): 9.0 | herbicidal effect rating ([7]; 0.2500 kg/ha): 9.0 | herbicidal effect rating ([8]; 0.0156-0.0160 kg/ha): 0.0 | herbicidal effect rating ([8]; 0.0313-0.0320 kg/ha): 1.0 | herbicidal effect rating ([8]; 0.0620-0.0630 kg/ha): 4.5 | herbicidal effect rating ([8]; 0.1250 kg/ha): 7.0 | herbicidal effect rating ([8]; 0.2500 kg/ha): 9.0 | herbicidal effect rating ([9]; 0.0156-0.0160 kg/ha): 9.0 | herbicidal effect rating ([9]; 0.0313-0.0320 kg/ha): 9.0 | herbicidal effect rating ([9]; 0.0620-0.0630 kg/ha): 9.0 | herbicidal effect rating ([9]; 0.1250 kg/ha): 9.0 | herbicidal effect rating ([9]; 0.2500 kg/ha): 9.0 | herbicidal effect rating ([10]; 0.0156-0.0160 kg/ha): 5.0 | herbicidal effect rating ([10]; 0.0313-0.0320 kg/ha): 6.0 | herbicidal effect rating ([10]; 0.0620-0.0630 kg/ha): 7.5 | herbicidal effect rating ([10]; 0.1250 kg/ha): 9.0 | herbicidal effect rating ([10]; 0.2500 kg/ha): 8.0 | herbicidal effect rating ([11]; 0.0156-0.0160 kg/ha): 0.5 | herbicidal effect rating ([11]; 0.0313-0.0320 kg/ha): 2.0 | herbicidal effect rating ([11]; 0.0620-0.0630 kg/ha): 7.0 | herbicidal effect rating ([11]; 0.1250 kg/ha): 9.0 | herbicidal effect rating ([11]; 0.2500 kg/ha): 8.5 | herbicidal effect rating ([12]; 0.0156-0.0160 kg/ha): 1.5 | herbicidal effect rating ([12]; 0.0313-0.0320 kg/ha): 2.5 | herbicidal effect rating ([12]; 0.0620-0.0630 kg/ha): 6.5 | herbicidal effect rating ([12]; 0.1250 kg/ha): 7.0 | herbicidal effect rating ([12]; 0.2500 kg/ha): 7.5
